From the supplement of paper PMC11061612

Columns and labels:
ACHN (Kidney Carcinoma) = test: Bliss excess, mean over the matrix (fraction); higher = more synergy
Summary of the method: (§1)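 Bliss excess equals the observed combination effect minus the expected value EA + EB − EA·EB, where EA and EB are the effects of each agent alone. Combination Emax is the second-highest inhibition within the matrix. Inhibition was scaled from CellTiter-Glo 2.0 luminescence, with 0 set by vehicle wells and 1 by blank wells, after 72 hours of two-drug dosing of cells plated in 1536-well plates.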

[1] = system: Caov-4 (Ovarian Carcinoma); test: as above
Summary of the method: as §1

[2] = system: EoL-1-cell (Acute Myeloid Leukemia); test: as above
Summary of the method: as §1

[3] = system: Hs-766T (Pancreatic Carcinoma); test: as above
Summary of the method: as §1

[4] = system: KARPAS-299 (T-Cell Non-Hodgkin's Lymphoma); test: as above
Summary of the method: as §1

[5] = system: MIA-PaCa-2 (Pancreatic Carcinoma); test: as above
Summary of the method: as §1

[6] = system: MLMA (Other Blood Carcinomas); test: as above
Summary of the method: as §1

[7] = system: RF-48 (B-Cell Non-Hodgkin's Lymphoma); test: as above
Summary of the method: as §1

[8] = system: SW13 (Other Solid Carcinomas); test: as above
Summary of the method: as §1

TK10 (Kidney Carcinoma) = test: as above
Summary of the method: as §1

[9] = system: C-4-I (Cervical Carcinoma); test: combination Emax (second highest fraction inhibited in the dose matrix, 72 h); higher = more inhibition; extreme values may be limits of the assay
Summary of the method: as §1

[10] = system: JVM-3 (B-Cell Non-Hodgkin's Lymphoma); test: as above
Summary of the method: as §1

[11] = system: KMOE-2 (Acute Myeloid Leukemia); test: as above
Summary of the method: as §1

[12] = system: NCI-H1915 (Non-Small Cell Lung Carcinoma); test: as above
Summary of the method: as §1

[13] = system: NEC8 (Other Solid Carcinomas); test: as above
Summary of the method: as §1

[14] = system: NUGC-3 (Gastric Carcinoma); test: as above
Summary of the method: as §1

[15] = system: OSC-20 (Oral Cavity Carcinoma); test: as above
Summary of the method: as §1

[16] = system: SCC-15 (Oral Cavity Carcinoma); test: as above
Summary of the method: as §1

[17] = system: SU8686 (Pancreatic Carcinoma); test: as above
Summary of the method: as §1

[18] = system: VA-ES-BJ (Other Solid Carcinomas); test: as above
Summary of the method: as §1

Structure (SMILES) | Bliss excess (ACHN (Kidney Carcinoma)) | Bliss excess [1] | Bliss excess [2] | Bliss excess [3] | Bliss excess [4] | Bliss excess [5] | Bliss excess [6] | Bliss excess [7] | Bliss excess [8] | Bliss excess (TK10 (Kidney Carcinoma)) | combination Emax [9] | combination Emax [10] | combination Emax [11] | combination Emax [12] | combination Emax [13] | combination Emax [14] | combination Emax [15] | combination Emax [16] | combination Emax [17] | combination Emax [18]
CN(CCO)CC[C@H](CSc1ccccc1)Nc1ccc(S(=O)(=O)NC(=O)c2ccc(N3CCC([C@@H](O)c4ccccc4-c4ccc(Cl)cc4)CC3)cc2)cc1S(=O)(=O)C(F)(F)F [AZD4320] + C=CCn1c(=O)c2cnc(Nc3ccc(N4CCN(C)CC4)cc3)nc2n1-c1cccc(C(C)(C)O)n1 [AZD1775] (first compound max 1 µM, partner max 1 µM) | 0.0342 | -0.0248 | -0.0146 | -0.0431 | 0.0477 | -0.0176 | 0.0379 | 0.0896 | -0.02 | 0.0515 | 0.946 | 1 | 1 | 0.853 | 0.414 | 0.764 | 0.119 | 0.551 | 0.238 | 0.458
CN(CCO)CC[C@H](CSc1ccccc1)Nc1ccc(S(=O)(=O)NC(=O)c2ccc(N3CCC([C@@H](O)c4ccccc4-c4ccc(Cl)cc4)CC3)cc2)cc1S(=O)(=O)C(F)(F)F [AZD4320] + Nc1ccn([C@@H]2O[C@H](CO)[C@@H](O)C2(F)F)c(=O)n1 [Gemcitabine] (first compound max 1 µM, 7x7, partner max 0.3 µM) | 0.0947 | -0.0556 | 0.0217 | -0.0777 | 0.0251 | -0.025 | -0.0381 | -0.0365 | -0.017 | 0.0032 |  |  |  |  |  |  |  |  |  | 
Cc1cc2ncnn2cc1Nc1ncc2c(n1)n(C1CCOCC1)c(=O)n2C [AZD7648] + C=CCn1c(=O)c2cnc(Nc3ccc(N4CCN(C)CC4)cc3)nc2n1-c1cccc(C(C)(C)O)n1 [AZD1775] (first compound max 10 µM, partner max 1 µM) | -0.0178 | 0.0222 | 0.0137 | -0.0274 | 0.0072 | -0.0459 | -0.0665 | 0.0239 | 0.0004 | 0.0668 | 0.899 | 0.904 | 0.924 | 0.553 | 0.123 | 0.587 | 0.354 | 0.439 | 0.224 | 0.453
CN(CCO)CC[C@H](CSc1ccccc1)Nc1ccc(S(=O)(=O)NC(=O)c2ccc(N3CCC([C@@H](O)c4ccccc4-c4ccc(Cl)cc4)CC3)cc2)cc1S(=O)(=O)C(F)(F)F [AZD4320] + Cc1cc2ncnn2cc1Nc1ncc2c(n1)n(C1CCOCC1)c(=O)n2C [AZD7648] (first compound max 1 µM, 7x7, partner max 10 µM) | -0.0186 | -0.0277 | 0.0476 | -0.0842 | -0.0343 | -0.0636 | 0.0082 | -0.0205 | -0.0371 | -0.014 | 0.132 | 0.916 | 0.896 | 0.223 | 0.159 | 0.347 | 0.0714 | 0.265 | 0.0978 | 0.174
Cc1cc2ncnn2cc1Nc1ncc2c(n1)n(C1CCOCC1)c(=O)n2C [AZD7648] + COc1cc([C@@H]2c3cc4c(cc3[C@@H](O[C@@H]3O[C@@H]5CO[C@@H](C)O[C@H]5[C@H](O)[C@H]3O)[C@H]3COC(=O)[C@H]23)OCO4)cc(OC)c1O [Etoposide] (first compound max 10 µM, 7x7, partner max 10 µM) | 0.0535 | 0.0606 | 0.191 | -0.0566 | 0.0522 | 0.05 | -0.0968 | 0.0671 | 0.0808 | 0.0187 |  |  |  |  |  |  |  |  |  | 
C[C@@H](c1ccc2nccn2c1)n1nnc2ncc(-c3cnn(C)c3)nc21 [Savolitinib] + Cc1c2c(nn1C)CSCc1cc(n(C)n1)CSc1cc(c3ccccc3c1)OCCCc1c(C(=O)O)n(C)c3c-2c(Cl)ccc13 [AZD5991] (first compound max 1 µM, 7x7, partner max 1 µM) | -0.0103 | -0.011 | 0.0703 | -0.0404 | 0.081 | -0.007 | -0.0122 | -0.029 | -0.0541 | -0.0486 | 0.273 |  | 0.113 | 0.0983 | 0.273 | 0.23 | 0.137 | 0.186 | 0.137 | 0.218
N#Cc1cnc(Nc2cc(NC[C@H]3CNCCO3)c(C(F)(F)F)cn2)cn1 [SRA737] + Nc1ccn([C@@H]2O[C@H](CO)[C@@H](O)C2(F)F)c(=O)n1 [Gemcitabine] (first compound max 10 µM, 7x7, partner max 0.3 µM) | -0.0356 | 0.0158 | 0.0316 | 0.003 | 0.0707 | 0.124 | -0.0924 | 0.0451 | 0.0367 | -0.0589 |  |  |  |  |  |  |  |  |  | 
CN(CCO)CC[C@H](CSc1ccccc1)Nc1ccc(S(=O)(=O)NC(=O)c2ccc(N3CCC([C@@H](O)c4ccccc4-c4ccc(Cl)cc4)CC3)cc2)cc1S(=O)(=O)C(F)(F)F [AZD4320] + CC(=O)O[C@H]1C(=O)[C@@]2(C)[C@H]([C@H](OC(=O)c3ccccc3)[C@]3(O)C[C@H](OC(=O)[C@H](O)[C@@H](NC(=O)c4ccccc4)c4ccccc4)C(C)=C1C3(C)C)[C@]1(OC(C)=O)CO[C@@H]1C[C@@H]2O [Paclitaxel] (first compound max 1 µM, 7x7, partner max 3 µM) | -0.0319 | 0.0863 | -0.0057 | -0.0002 | -0.079 | 0.0064 | 0.0254 | -0.0029 |  | 0.0195 |  |  |  |  |  |  |  |  |  | 
COc1cc2ncnc(Nc3ccc(F)c(Cl)c3)c2cc1OCCCN1CCOCC1 [Gefitinib] + CC(C)n1c(=O)n(C)c2cnc3cc(F)c(-c4ccc(OCCCN5CCCCC5)nc4)cc3c21 [AZD1390] (first compound max 10 µM, 7x7, partner max 0.3 µM) | -0.0829 | -0.0591 | -0.0385 | -0.0908 | -0.0218 | -0.0307 | -0.0358 | -0.0283 | -0.0233 | -0.0646 | 0.387 |  | 0.0507 | 0.213 | 0 | 0.486 | 0.064 | 0.39 | 0.082 | 0.0868
N#Cc1cnc(Nc2cc(NC[C@H]3CNCCO3)c(C(F)(F)F)cn2)cn1 [SRA737] + C=CCn1c(=O)c2cnc(Nc3ccc(N4CCN(C)CC4)cc3)nc2n1-c1cccc(C(C)(C)O)n1 [AZD1775] (first compound max 10 µM, partner max 1 µM) | -0.0285 | 0.0532 | -0.0097 | 0.0161 | 0.0776 | 0.139 | -0.0114 | -0.0171 | 0.0091 | 0.0566 |  |  |  |  |  |  |  |  |  | 
C[C@@H](c1ccc2nccn2c1)n1nnc2ncc(-c3cnn(C)c3)nc21 [Savolitinib] + CC1(C)CCC(CN2CCN(c3ccc(C(=O)NS(=O)(=O)c4ccc(NCC5CCOCC5)c([N+](=O)[O-])c4)c(Oc4cnc5[nH]ccc5c4)c3)CC2)=C(c2ccc(Cl)cc2)C1 [Venetoclax] (first compound max 1 µM, 7x7, partner max 1 µM) | -0.0443 | -0.0839 | 0.0273 | -0.0681 | -0.0121 | -0.0355 | -0.022 | -0.0502 | -0.0363 | -0.0568 | 0.0949 |  | 0.0977 | 0.145 | 0.117 | 0.181 | 0.149 | 0.191 | 0.0716 | 0.152
Cc1nc(Nc2ncc(C(=O)Nc3c(C)cccc3Cl)s2)cc(N2CCN(CCO)CC2)n1 [Dasatinib] + CC(=O)Nc1cccc(-n2c(=O)n(C3CC3)c(=O)c3c(Nc4ccc(I)cc4F)n(C)c(=O)c(C)c32)c1 [Trametinib] (first compound max 2 µM, 7x7, partner max 1 µM) | -0.0707 | -0.125 | -0.0157 | 0.0971 | 0.0122 | 0.156 | -0.0324 | -0.0369 | -0.0548 | 0.0159 | 0.731 |  | 1 | 1 | 0 | 0.721 | 0.434 | 0.739 | 0.388 | 0.441
N#Cc1cnc(Nc2cc(NC[C@H]3CNCCO3)c(C(F)(F)F)cn2)cn1 [SRA737] + CCc1c2c(nc3ccc(O)cc13)-c1cc3c(c(=O)n1C2)COC(=O)[C@]3(O)CC [SN-38] (first compound max 10 µM, 7x7, partner max 0.3 µM) | -0.0867 | -0.0488 | -0.0375 | -0.0095 | 0.0148 | 0.0599 | -0.061 | -0.0047 | -0.0192 | 0.0241 |  |  |  |  |  |  |  |  |  | 
N#Cc1cnc(Nc2cc(NC[C@H]3CNCCO3)c(C(F)(F)F)cn2)cn1 [SRA737] + O=c1[nH]cc(F)c(=O)[nH]1 [5-Fluorouracil] (first compound max 10 µM, 7x7, partner max 20 µM) | -0.0547 | -0.0494 | -0.0084 | 0.0415 | 0.0529 | -0.0352 | -0.0455 | -0.0095 | -0.026 | -0.0549 |  |  |  |  |  |  |  |  |  | 
